From US20250025518A1, “USE OF BIFIDOBACTERIUM LACTIS BL-99 IN PROTECTION OF CARTILAGE” (Inner Mongolia Yili Industrial Group Co., Ltd., priority 2021, published 2025)

Tested on: zebrafish cartilage
Assay: Evaluation of cartilage protection efficacy: fluorescence intensity of cartilage in dexamethasone-induced zebrafish cartilage damage model
Assay type: in vivo
Conditions: for Fluorescence intensity of cartilage (pixel, mean ± SE): n = 10

Chondroitin sulfate A sodium salt
Fluorescence intensity of cartilage (pixel, mean ± SE) (Table 2, 1000 μg/mL): 277530 ± 20981 pixel
Increased cartilage protection efficacy (%) compared with the model group (Table 3, 1000 μg/mL): 44%
Fluorescence intensity of cartilage (pixel, mean ± SE) (Table 3, 1000 μg/mL): 296517 ± 25160 pixel
